US20260317329A1, “DRUG LINKERS AND ANTIBODY CONJUGATES THEREOF” (Ambrx, Inc., priority 2022, published 2026)

Columns and labels:
Assay type in all cases: cell-based
[1] = system: NCI-H929 (CD70 negative) cells; assay: In vitro cytotoxicity in CD70 negative NCI-H929 cells (CellTiter-Glo 2.0, 4 days); settings: Homo sapiens, 96 h; for Emax at 0.025 µM: maximal killing at 25 nM
Protocol: (§1) Small molecule duocarmycin analogs (compounds 4, 13, 15, 17 and 38) and anti-CD70 ADCs (anti-CD70-12, anti-CD70-14, anti-CD70-16 and anti-CD70-18) were evaluated for cytotoxicity. Briefly, 786-0 (CD70 positive) cells were seeded into 96-well clear bottom white plate at 1,000 cells/well and incubated overnight in a 37° C. and 5% CO2 incubator. NCI-H929 (CD70 negative) cells were seeded 30,000 cells/well just before the time of treatment of test articles. The serially diluted small molecule drugs or anti-CD70 ADCs were added to the wells and the plates were incubated for 4 days in a 37° C. and 5% CO2 incubator. At the end of incubation, CellTiter-Glo2.0 Reagent (Promega, Madison, WI) was added to the room temperature equilibrated plates and luminescence was measured in a SpectraMax M5E plate reader. The relative viability was calculated as a percentage of untreated cells. The half-maximal inhibitory concentration (IC50) was determined by a nonlinear 4-parameter dose-response curve fitting using GraphPad Prism (GraphPad Software, San Diego, CA). The maximal killing (Emax) was determined by subtracting the % viability at the indicated dose from 100%.

[2] = system: 786-O (CD70 positive) cells; assay: In vitro cytotoxicity in CD70 positive 786-O cells (CellTiter-Glo 2.0, 4 days); settings: Homo sapiens; for Emax at 0.025 µM: maximal killing at 25 nM
Protocol: as §1

[3] = system: HepG2 (GPC3 positive) cells; assay: In vitro cytotoxicity in GPC3 positive HepG2 cells (CellTiter-Glo 2.0, 3 days); settings: Homo sapiens, 72 h; for Emax at 0.03 µM: maximal killing at 30 nM
Protocol: (§2) Anti-GPC3 ADCs were prepared via conjugation of GPC3 clone 1 mAb containing non-natural amino acid pAF with each of compounds 12, 14, 16 and 18. The corresponding ADCs (hereinafter, anti-GPC3-12, anti-GPC3-14, anti-GPC3-16 and anti-GPC3-18 respectively) and small molecule duocarmycin analogs (compounds 15 and 17) were evaluated for cytotoxicity. Briefly, HepG2 and SNU449 cells were seeded into 96-well white opaque plate at 3,000 cells/well and incubated overnight in a 37° C. and 5% CO2 incubator. The serially diluted small molecule drugs or anti-GPC3 ADCs were added to the wells and the plates were incubated for 3 days in a 37° C. and 5% CO2 incubator. At the end of incubation, CellTiter-Glo2.0 Reagent (Promega, Madison, WI) was added to the room temperature equilibrated plates and luminescence was measured in a SpectraMax M5E plate reader. The relative viability was calculated as a percentage of untreated cells. The half-maximal inhibitory concentration (IC50) was determined by a nonlinear 4-parameter dose-response curve fitting using GraphPad Prism (GraphPad Software, San Diego, CA). The maximal killing (Emax) was determined by subtracting the % viability at the indicated dose from 100%.

[4] = system: SNU449 (GPC3 negative) cells; assay: In vitro cytotoxicity in GPC3 negative SNU449 cells (CellTiter-Glo 2.0, 3 days); settings: Homo sapiens, SNU-449, 72 h; for Emax at 0.03 µM: maximal killing at 30 nM
Protocol: as §2

[5] = 786-0, 96 h, 786-O (CD70 Positive), 4 days

SMILES	IC50 [1] [nM]	Emax at 0.025 µM [1] [%]	IC50 [2, 5] [nM]	Emax at 0.025 µM [2, 5] [%]	IC50 [3] [nM]	Emax at 0.03 µM [3] [%]	IC50 [4] [nM]	Emax at 0.03 µM [4] [%]	IC50 ([2]; 786-0 (CD70-positive), first test of benchmark free drug and ADC) [nM]
COc1cc2cc(C(=O)N3C[C@@H](CCl)c4c3cc(O)c3[nH]c(C(=O)N5CCc6ccccc65)cc43)[nH]c2c(OC)c1OC [Compound 4, (S)-(8-(chloromethyl)-4-hydroxy-6-(5,6,7-trimethoxy-1H-indole-2-carbonyl)-3,6,7,8-tetrahydropyrrolo[3,2-e]indol-2-yl)(indolin-1-yl)methanone]	0.804	99.7	0.0089	99	–	–	–	–	–
COc1cc2c(cc1OC)N(C(=O)c1cc3c4c(cc(O)c3[nH]1)N(C(=O)c1cc3cc(OC)c(OC)c(OC)c3[nH]1)C[C@H]4CCl)CC2 [Compound 13]	1.79	99.5	0.0166	99.2	–	–	–	–	–
COc1cc2cc(C(=O)N3C[C@@H](CCl)c4c3cc(O)c3[nH]c(C(=O)N5CCc6ccncc65)cc43)[nH]c2c(OC)c1OC [Compound 15]	9.12	82.4	0.0626	98.1	0.41	96.5	0.427	91.1	–
COc1cc2cc(C(=O)N3C[C@@H](CCl)c4c3cc(O)c3[nH]c(C(=O)N5CCc6cc(OCCN7CCOCC7)ccc65)cc43)[nH]c2c(OC)c1OC [Compound 17]	2.59	97.6	0.0179	99.3	0.217	97.6	0.245	94.2	–
COc1cc2cc(C(=O)N3C[C@@H](CCl)c4c3cc(O)c3ccccc43)[nH]c2c(OC)c1OC [Compound 38, reference compound]	0.791	99.5	0.561	97.4	–	–	–	–	–
COC(=O)c1cc2c3c(cc(O)c2[nH]1)N(C(=O)c1cc2cc(OC)c(OC)c(OC)c2[nH]1)C[C@H]3CCl [Compound 39, (S)-seco-duocarmycin SA, reference compound]	–	–	–	–	–	–	–	–	0.065
